In the NIST ThermoML archive (doi:10.1021/je050358g):
Numbers after ± are expanded uncertainties.

Conditions: Liquid, vibrating tube

## CCCCCCCCCCCCCC[P+](CCCCCC)(CCCCCC)CCCCCC.[Cl-] [trihexyl(tetradecyl)phosphonium chloride]
298.13 K, 190 kPa
  mass density: 891.62 ± 2.4 kg/m3
298.13 K, 1000 kPa
  mass density: 892.02 ± 2.4 kg/m3
298.13 K, 3000 kPa
  mass density: 893.07 ± 2.4 kg/m3
298.13 K, 5010 kPa
  mass density: 894.09 ± 2.4 kg/m3
298.13 K, 7500 kPa
  mass density: 895.36 ± 2.4 kg/m3
298.13 K, 10000 kPa
  mass density: 896.59 ± 2.4 kg/m3
298.13 K, 15010 kPa
  mass density: 899.02 ± 2.4 kg/m3
298.13 K, 19990 kPa
  mass density: 901.33 ± 2.4 kg/m3
298.13 K, 25010 kPa
  mass density: 903.6 ± 2.4 kg/m3
298.13 K, 29990 kPa
  mass density: 905.77 ± 2.4 kg/m3
298.13 K, 35010 kPa
  mass density: 907.93 ± 2.4 kg/m3
298.13 K, 39990 kPa
  mass density: 910.01 ± 2.4 kg/m3
298.13 K, 45010 kPa
  mass density: 912.05 ± 2.4 kg/m3
298.13 K, 50000 kPa
  mass density: 914.03 ± 2.4 kg/m3
298.13 K, 55000 kPa
  mass density: 915.93 ± 2.4 kg/m3
298.13 K, 59990 kPa
  mass density: 917.83 ± 2.4 kg/m3
298.13 K, 65000 kPa
  mass density: 919.63 ± 2.4 kg/m3
303.15 K, 190 kPa
  mass density: 888.51 ± 2.3 kg/m3
303.15 K, 1000 kPa
  mass density: 888.97 ± 2.3 kg/m3
303.15 K, 3000 kPa
  mass density: 890.03 ± 2.3 kg/m3
303.15 K, 5010 kPa
  mass density: 891.06 ± 2.4 kg/m3
303.15 K, 7500 kPa
  mass density: 892.35 ± 2.4 kg/m3
303.15 K, 10000 kPa
  mass density: 893.6 ± 2.4 kg/m3
303.15 K, 15010 kPa
  mass density: 896.1 ± 2.4 kg/m3
303.15 K, 19990 kPa
  mass density: 898.48 ± 2.4 kg/m3
303.15 K, 25010 kPa
  mass density: 900.78 ± 2.4 kg/m3
303.15 K, 29990 kPa
  mass density: 903.01 ± 2.4 kg/m3
303.15 K, 35010 kPa
  mass density: 905.17 ± 2.4 kg/m3
303.15 K, 39990 kPa
  mass density: 907.28 ± 2.4 kg/m3
303.15 K, 45010 kPa
  mass density: 909.34 ± 2.4 kg/m3
303.15 K, 50000 kPa
  mass density: 911.34 ± 2.4 kg/m3
303.15 K, 55000 kPa
  mass density: 913.27 ± 2.4 kg/m3
303.15 K, 59990 kPa
  mass density: 915.17 ± 2.4 kg/m3
303.15 K, 65000 kPa
  mass density: 916.99 ± 2.4 kg/m3
308.13 K, 190 kPa
  mass density: 885.65 ± 2.3 kg/m3
308.13 K, 1000 kPa
  mass density: 886.07 ± 2.3 kg/m3
308.13 K, 3000 kPa
  mass density: 887.18 ± 2.3 kg/m3
308.13 K, 5010 kPa
  mass density: 888.26 ± 2.3 kg/m3
308.13 K, 7500 kPa
  mass density: 889.57 ± 2.3 kg/m3
308.13 K, 10000 kPa
  mass density: 890.87 ± 2.4 kg/m3
308.13 K, 15010 kPa
  mass density: 893.38 ± 2.4 kg/m3
308.13 K, 19990 kPa
  mass density: 895.82 ± 2.4 kg/m3
308.13 K, 25010 kPa
  mass density: 898.17 ± 2.4 kg/m3
308.13 K, 29990 kPa
  mass density: 900.42 ± 2.4 kg/m3
308.13 K, 35010 kPa
  mass density: 902.63 ± 2.4 kg/m3
308.13 K, 39990 kPa
  mass density: 904.75 ± 2.4 kg/m3
308.13 K, 45010 kPa
  mass density: 906.82 ± 2.4 kg/m3
308.13 K, 50000 kPa
  mass density: 908.83 ± 2.4 kg/m3
308.13 K, 55000 kPa
  mass density: 910.78 ± 2.4 kg/m3
308.13 K, 59990 kPa
  mass density: 912.67 ± 2.4 kg/m3
308.13 K, 65000 kPa
  mass density: 914.51 ± 2.4 kg/m3
313.15 K, 190 kPa
  mass density: 882.72 ± 2.3 kg/m3
313.15 K, 1000 kPa
  mass density: 883.19 ± 2.3 kg/m3
313.15 K, 3000 kPa
  mass density: 884.3 ± 2.3 kg/m3
313.15 K, 5010 kPa
  mass density: 885.4 ± 2.3 kg/m3
313.15 K, 7500 kPa
  mass density: 886.75 ± 2.3 kg/m3
313.15 K, 10000 kPa
  mass density: 888.06 ± 2.3 kg/m3
313.15 K, 15010 kPa
  mass density: 890.63 ± 2.4 kg/m3
313.15 K, 19990 kPa
  mass density: 893.11 ± 2.4 kg/m3
313.15 K, 25010 kPa
  mass density: 895.49 ± 2.4 kg/m3
313.15 K, 29990 kPa
  mass density: 897.81 ± 2.4 kg/m3
313.15 K, 35010 kPa
  mass density: 900.04 ± 2.4 kg/m3
313.15 K, 39990 kPa
  mass density: 902.21 ± 2.4 kg/m3
313.15 K, 45010 kPa
  mass density: 904.32 ± 2.4 kg/m3
313.15 K, 50000 kPa
  mass density: 906.35 ± 2.4 kg/m3
313.15 K, 55000 kPa
  mass density: 908.34 ± 2.4 kg/m3
318.15 K, 190 kPa
  mass density: 879.82 ± 2.3 kg/m3
318.15 K, 1000 kPa
  mass density: 880.27 ± 2.3 kg/m3
318.15 K, 3000 kPa
  mass density: 881.41 ± 2.3 kg/m3
318.15 K, 5010 kPa
  mass density: 882.52 ± 2.3 kg/m3
318.15 K, 7500 kPa
  mass density: 883.89 ± 2.3 kg/m3
318.15 K, 10000 kPa
  mass density: 885.24 ± 2.3 kg/m3
318.15 K, 15010 kPa
  mass density: 887.86 ± 2.3 kg/m3
318.15 K, 19990 kPa
  mass density: 890.37 ± 2.4 kg/m3
318.15 K, 25010 kPa
  mass density: 892.81 ± 2.4 kg/m3
318.15 K, 29990 kPa
  mass density: 895.15 ± 2.4 kg/m3
318.15 K, 35010 kPa
  mass density: 897.43 ± 2.4 kg/m3
318.15 K, 39990 kPa
  mass density: 899.63 ± 2.4 kg/m3
318.15 K, 45010 kPa
  mass density: 901.78 ± 2.4 kg/m3
318.15 K, 50000 kPa
  mass density: 903.87 ± 2.4 kg/m3
318.15 K, 55000 kPa
  mass density: 905.9 ± 2.4 kg/m3
318.15 K, 59990 kPa
  mass density: 907.87 ± 2.4 kg/m3
318.15 K, 65000 kPa
  mass density: 909.78 ± 2.4 kg/m3
323.14 K, 190 kPa
  mass density: 876.69 ± 2.3 kg/m3
323.14 K, 1000 kPa
  mass density: 877.16 ± 2.3 kg/m3
323.14 K, 3000 kPa
  mass density: 878.29 ± 2.3 kg/m3
323.14 K, 5010 kPa
  mass density: 879.43 ± 2.3 kg/m3
323.14 K, 7500 kPa
  mass density: 880.82 ± 2.3 kg/m3
323.14 K, 10000 kPa
  mass density: 882.18 ± 2.3 kg/m3
323.14 K, 15010 kPa
  mass density: 884.84 ± 2.3 kg/m3
323.14 K, 19990 kPa
  mass density: 887.38 ± 2.3 kg/m3
323.14 K, 25010 kPa
  mass density: 889.86 ± 2.4 kg/m3
323.14 K, 29990 kPa
  mass density: 892.24 ± 2.4 kg/m3
323.14 K, 35010 kPa
  mass density: 894.57 ± 2.4 kg/m3
323.14 K, 39990 kPa
  mass density: 896.82 ± 2.4 kg/m3
323.14 K, 45010 kPa
  mass density: 899.01 ± 2.4 kg/m3
323.14 K, 50000 kPa
  mass density: 901.13 ± 2.4 kg/m3
323.14 K, 55000 kPa
  mass density: 903.19 ± 2.4 kg/m3
323.14 K, 59990 kPa
  mass density: 905.21 ± 2.4 kg/m3
323.14 K, 65000 kPa
  mass density: 907.16 ± 2.4 kg/m3
328.16 K, 190 kPa
  mass density: 873.88 ± 2.3 kg/m3
328.16 K, 1000 kPa
  mass density: 874.33 ± 2.3 kg/m3
328.16 K, 3000 kPa
  mass density: 875.5 ± 2.3 kg/m3
328.16 K, 5010 kPa
  mass density: 876.64 ± 2.3 kg/m3
328.16 K, 7500 kPa
  mass density: 878.05 ± 2.3 kg/m3
328.16 K, 10000 kPa
  mass density: 879.42 ± 2.3 kg/m3
328.16 K, 15010 kPa
  mass density: 882.11 ± 2.3 kg/m3
328.16 K, 19990 kPa
  mass density: 884.69 ± 2.3 kg/m3
328.16 K, 25010 kPa
  mass density: 887.2 ± 2.3 kg/m3
328.16 K, 29990 kPa
  mass density: 889.62 ± 2.4 kg/m3
328.16 K, 35010 kPa
  mass density: 891.98 ± 2.4 kg/m3
328.16 K, 39990 kPa
  mass density: 894.24 ± 2.4 kg/m3
328.16 K, 45010 kPa
  mass density: 896.49 ± 2.4 kg/m3
328.16 K, 50000 kPa
  mass density: 898.62 ± 2.4 kg/m3
328.16 K, 55000 kPa
  mass density: 900.74 ± 2.4 kg/m3
328.16 K, 59990 kPa
  mass density: 902.79 ± 2.4 kg/m3
328.16 K, 65000 kPa
  mass density: 904.8 ± 2.4 kg/m3
333.14 K, 190 kPa
  mass density: 870.88 ± 2.3 kg/m3
333.14 K, 1000 kPa
  mass density: 871.36 ± 2.3 kg/m3
333.14 K, 3000 kPa
  mass density: 872.51 ± 2.3 kg/m3
333.14 K, 5010 kPa
  mass density: 873.64 ± 2.3 kg/m3
333.14 K, 7500 kPa
  mass density: 875.05 ± 2.3 kg/m3
333.14 K, 10000 kPa
  mass density: 876.42 ± 2.3 kg/m3
333.14 K, 15010 kPa
  mass density: 879.11 ± 2.3 kg/m3
333.14 K, 19990 kPa
  mass density: 881.72 ± 2.3 kg/m3
333.14 K, 25010 kPa
  mass density: 884.25 ± 2.3 kg/m3
333.14 K, 29990 kPa
  mass density: 886.71 ± 2.3 kg/m3
333.14 K, 35010 kPa
  mass density: 889.11 ± 2.3 kg/m3
333.14 K, 39990 kPa
  mass density: 891.46 ± 2.4 kg/m3
333.14 K, 45010 kPa
  mass density: 893.73 ± 2.4 kg/m3
333.14 K, 50000 kPa
  mass density: 895.96 ± 2.4 kg/m3
333.14 K, 55000 kPa
  mass density: 898.14 ± 2.4 kg/m3
333.14 K, 59990 kPa
  mass density: 900.26 ± 2.4 kg/m3
333.14 K, 65000 kPa
  mass density: 902.35 ± 2.4 kg/m3
